These results are taken from ChEMBL document CHEMBL6074691, “Discovery of 22(S)-23-phenyl-24-norchol-5-en-3β,22-diol (PFM046) as the first-in-class, steroidal, non-sulfated Liver X Receptor antagonist with anticancer activity” (Eur J Med Chem, 2025).

The target of data set [1] is T1, Oxysterols receptor LXR-alpha (Homo sapiens, UniProt Q13133).
T1 sequence (Q13133 whole entry): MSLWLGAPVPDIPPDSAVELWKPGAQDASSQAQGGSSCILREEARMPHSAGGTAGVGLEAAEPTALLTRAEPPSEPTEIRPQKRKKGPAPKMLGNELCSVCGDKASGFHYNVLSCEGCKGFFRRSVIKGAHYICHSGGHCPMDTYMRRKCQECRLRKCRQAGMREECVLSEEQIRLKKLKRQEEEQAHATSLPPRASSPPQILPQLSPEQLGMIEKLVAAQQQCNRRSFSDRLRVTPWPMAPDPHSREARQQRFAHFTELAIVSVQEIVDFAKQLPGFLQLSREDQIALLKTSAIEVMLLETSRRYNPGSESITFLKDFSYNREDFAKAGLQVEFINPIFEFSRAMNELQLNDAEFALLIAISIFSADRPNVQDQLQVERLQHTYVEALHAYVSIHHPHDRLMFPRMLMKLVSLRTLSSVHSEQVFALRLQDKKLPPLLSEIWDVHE
The data set is described as follows: Antagonist activity at LXRalpha (unknown origin) by TR-FRET assay. (Time-resolved FRET reads energy transfer from a long-lived donor to a nearby acceptor.)

Data set [2] has as its target T1, Oxysterols receptor LXR-alpha. The data set is described as follows: Antagonist activity at LXRalpha (unknown origin).
For a further data set, the system named is B16-F1. Put plainly: Antitumor activity against mouse B16-F1 cells implanted in C57BL/6 mouse assessed as reduction in tumor volume at 300 to 400 ug, ip administered 5 days per week and measured every 2 to 3 days by caliper method. Format: functional, organism-based. As to conditions: dose 300-400 µg.
The test system of data set [3] is Lewis lung carcinoma cell line. Put plainly: Antitumor activity against mouse Lewis lung carcinoma cell line implanted in C57BL/6 mouse assessed as reduction in tumor volume at 300 to 400 ug, ip administered 5 days per week and measured every 2 to 3 days by caliper method. The class given is functional, organism-based. The conditions noted are these: dose 300-400 µg.

A short description of data set [4]: Kinetic solubility of compound in PBS at pH 7.4 by Rapidfire-MS/MS method. The class given is physicochemical. As to conditions: buffer.
Data set [5] in a line: Unbound fraction in human plasma by dialysis method. The class given is ADME, cell-free.
Data set [6] is described as follows: Unbound fraction in mouse plasma by dialysis method. Format: ADME, cell-free.
Data set [7] can be described thus: Hepatic intrinsic clearance in human liver microsomes assessed per mg protein at 0.5 uM in presence of NADPH regenerating system by UHPLC-MS/MS method. The conditions noted are these: read-out: CLH. The class given is ADME, Microsome. (Liver microsomes are a subcellular fraction often used to study metabolism.)
Data set [8] in a line: Hepatic intrinsic clearance in mouse liver microsomes assessed per mg protein at 0.5 uM in presence of NADPH regenerating system by UHPLC-MS/MS method. The class given is ADME, Microsome. As to conditions: read-out: CLH.
The nature of data set [9]: Drug uptake in C57BL/6 mouse at 400 ug, ip measured after 1 hr by UHPLC-MS/MS analysis. The class given is ADME, organism-based. The conditions noted are these: in vivo, dose 400 µg, read-out: Drug uptake.
Data set [10] in a line: Drug uptake in C57BL/6 mouse at 400 ug, ip measured after 3 hrs by UHPLC-MS/MS analysis. The class given is ADME, organism-based. The conditions noted are these: in vivo, dose 400 µg, read-out: Drug uptake.
Data set [11] is described as follows: Drug uptake in C57BL/6 mouse at 400 ug, ip measured after 6 hrs by UHPLC-MS/MS analysis. Format: ADME, organism-based. As to conditions: in vivo, dose 400 µg, read-out: Drug uptake.
The nature of data set [12]: Cmax in C57BL/6 mouse at 400 ug, ip by UHPLC-MS/MS analysis. Format: ADME, organism-based. As to conditions: in vivo, dose 400 µg.
Data set [13] is described as follows: Tmax in C57BL/6 mouse at 400 ug, ip by UHPLC-MS/MS analysis. Format: ADME, organism-based. As to conditions: in vivo, dose 400 µg.
Data set [14] is described as follows: Clast in C57BL/6 mouse at 400 ug, ip by UHPLC-MS/MS analysis. Format: ADME, organism-based. As to conditions: in vivo, dose 400 µg.
Data set [15] is described as follows: Tlast in C57BL/6 mouse at 400 ug, ip by UHPLC-MS/MS analysis. Format: ADME, organism-based. As to conditions: in vivo, dose 400 µg.
The nature of data set [16]: AUClast in C57BL/6 mouse at 400 ug, ip by UHPLC-MS/MS analysis. The class given is ADME, organism-based. As to conditions: in vivo, dose 400 µg.
Data set [17] is described as follows: Observed AUC infinity in C57BL/6 mouse at 400 ug, ip by UHPLC-MS/MS analysis. The class given is ADME, organism-based. As to conditions: in vivo, dose 400 µg.
A further data set concerns Mus musculus. The data set is described as follows: Observed extrapolated AUC in C57BL/6 mouse at 400 ug, ip by UHPLC-MS/MS analysis. Format: ADME, organism-based. As to conditions: in vivo, at 400 µg.
The subject of data set [18] is Lewis lung carcinoma cell line. The data set is described as follows: Antitumor activity against mouse Lewis lung carcinoma cell line assessed as reduction in cell number at 10 uM incubated for 72 hrs by trypan blue assay. The class given is functional, cell-based.
The nature of data set [19]: Drug uptake in C57BL/6 mouse at 400 ug, ip measured after 24 hrs by UHPLC-MS/MS analysis. Format: ADME, organism-based. The conditions noted are these: in vivo, dose 400 µg, read-out: Drug uptake.
The subject of data set [20] is U-937. The data set is described as follows: Downregulation of SREBP-1 expression in human U-937 cells incubated for 72 hrs by qRT-PCR analysis. The class given is functional, cell-based.
For data set [21], the system named is U-937. Put plainly: Downregulation of SCD1 expression in human U-937 cells incubated for 72 hrs by qRT-PCR analysis. Format: functional, cell-based. In general terms: In qPCR the cycle at which signal appears reflects the starting amount.
Data set [22] relates to U-937. The data set is described as follows: Downregulation of FASN expression in human U-937 cells incubated for 72 hrs by qRT-PCR analysis. The class given is functional, cell-based.
In data set [23] the test system is U-937. The data set is described as follows: Upregulation of ABCA1 expression in human U-937 cells incubated for 72 hrs by qRT-PCR analysis. Format: functional, cell-based.

Molecules are shown by their SMILES. Active and inactive are the calls of the source. No cut-off for these calls is given here.

Broadly, the IC50 is the midpoint of a concentration-inhibition curve. With `CC(C)[C@H](CC[C@@H](C)[C@H]1CC[C@H]2[C@@H]3CC=C4C[C@@H](O)CC[C@]4(C)[C@H]3CC[C@]12C)OS(=O)(=O)O`, in data set [1], the IC50 is 310 nM.

`CC(C)[C@@H](O)CC[C@@H](C)[C@H]1CC[C@H]2[C@@H]3CC=C4C[C@@H](OS(=O)(=O)O)CC[C@]4(C)[C@H]3CC[C@]12C`: in data set [1], the 50% inhibitory concentration (IC50) was 150 nM.

In the case of `CC(C)CCC[C@@H](C)[C@H]1CC[C@H]2[C@@H]3C(=O)C=C4C[C@@H](OS(=O)(=O)O)CC[C@]4(C)[C@H]3CC[C@]12C`, in data set [2], it took 5000 nM to reach half-maximal inhibition (IC50).

The term Cmax denotes the peak of the concentration-time curve. What is called Tmax is the time from dosing to the highest level. For orientation: AUC(0-t) means exposure summed from dosing to a finite time, without extrapolation to infinity. In general, AUC(0-inf) refers to total exposure, with the tail of the curve extrapolated. A low value points to low exposure. As to `CC(C)CC[C@H](O)[C@@H](C)[C@H]1CC[C@H]2[C@@H]3CC=C4C[C@@H](OS(=O)(=O)[O-])CC[C@]4(C)[C@H]3CC[C@]12C.[Na+]`, the result (with B16-F1; in data set [3]) was Active. Besides, the Kinetic_solubility entry in [4] is reported as “NotTraceable”. In addition, the Fu in data set [5] and in [6] was less than 1% in each case. The microsomal CLint at 0.5 µM stood at 26.4 µL/min/mg in data set [7] and 17.2 µL/min/mg in [8]. The concentration at 1 h in [9] amounted to 3170 ng/mL. The concentration at 3 h in [10] worked out at 363 ng/mL. The concentration at 6 h in [11] amounted to 65.2 ng/mL. This compound had a Cmax in data set [12] of 3170 ng/mL. The Tmax in data set [13] is 1 h. In data set [14], this compound had a Clast of 65.2 ng/mL. Besides, in [15], the Tlast was found to be 6 h. The AUC(0-t) in [16] was determined as 4690 ng·h/mL. The compound further gave an AUC(0-inf) in data set [17] of 4800 ng·h/mL. In addition, the “%AUCextra” value with Mus musculus was 2.5%.

As to `C[C@@H]([C@H]1CC[C@H]2[C@@H]3CC=C4C[C@@H](O)CC[C@]4(C)[C@H]3CC[C@]12C)[C@@H](O)Cc1ccccc1`, the outcome (in data set [18]; in the data set with B16-F1; in data set [3]; in the data set on U-937 [20]; in the data set on U-937 [21]; in the data set on U-937 [22]) was Active. In addition, the outcome with U-937 [23] was Active. The Kinetic_solubility result in data set [4] is given as “NotTraceable”. In addition, the Fu in data set [5] and in data set [6] was less than 1% throughout. The microsomal CLint at 0.5 µM was less than 9.9 µL/min/mg in data set [7] and 45.8 µL/min/mg in data set [8]. In addition, the concentration at 1 h in [9] was 68.9 ng/mL. The concentration at 3 h in data set [10] was 109 ng/mL. Further, in data set [11], the concentration at 6 h was 110 ng/mL. The concentration at 24 h in data set [19] was found to be 167 ng/mL. Also, in [12], the peak level (Cmax) was 174 ng/mL. For the same compound, in data set [13], the Tmax is 6 h. This compound also displayed a Clast in data set [14] of 167 ng/mL. This compound also showed a Tlast in [15] of 24 h. The same compound had an AUC(0-t) in data set [16] of 3070 ng·h/mL.

In data set [2], `CC(C)CCC[C@@H](C)[C@H]1CC[C@H]2[C@@H]3C[C@@H]4O[C@@]45C[C@@H](OS(=O)(=O)O)CC[C@]5(C)[C@H]3CC[C@]12C` yielded an IC50 of 2000 nM.
